According to publication PMC11822212, “High-throughput screening identifies Aurora kinase B as a critical therapeutic target for Merkel cell carcinoma” (Nature Communications, 2025):

Legend:
[1] = tested on: HEK293T cells; experiment: qHTS cell viability (CellTiter-Glo, 72 h; primary screen), control cell line; assay type: cell-based, human
[2] = tested on: VN-MCC cell lines (MCC13, MCC26, UISO); experiment: qHTS cell viability, VN-MCC cell lines as a group (mean AUC, VN.MCC.avg); assay type: cell-based, human; conditions: for VN-MCC_Avg_AUC: mean AUC of VN-MCC cell lines
[3] = tested on: WAGA cells (VP-MCC); experiment: qHTS cell viability (CellTiter-Glo, 72 h; primary and follow-up small molecule screen); assay type: cell-based, human
[4] = tested on: MCC13 cells (VN-MCC); experiment: as above; assay type: cell-based, human
[5] = tested on: six MCC cell lines and four control cell lines; experiment: qHTS cell viability, all 10 cell lines screened; assay type: cell-based
[6] = tested on: MCC26 cells (VN-MCC); experiment: qHTS cell viability (CellTiter-Glo, 72 h; primary and follow-up small molecule screen); assay type: cell-based, human
[7] = tested on: CRL-7250 cells; experiment: qHTS cell viability (CellTiter-Glo, 72 h; primary screen), control cell line; assay type: cell-based
[8] = tested on: UISO cells (VN-MCC); experiment: qHTS cell viability (CellTiter-Glo, 72 h; primary and follow-up small molecule screen); assay type: cell-based, human
[9] = tested on: NIH-3T3 cells; experiment: qHTS cell viability (CellTiter-Glo, 72 h; primary screen), control cell line; assay type: cell-based, mouse
[10] = tested on: MCC cell lines (WAGA, MKL-1, MKL-2, MCC13, MCC26, UISO); experiment: qHTS cell viability, all six MCC cell lines as a group (mean AUC, MCC.avg); assay type: cell-based, human
[11] = tested on: HACAT cells; experiment: qHTS cell viability (CellTiter-Glo, 72 h; primary screen), control cell line; assay type: cell-based, human
[12] = tested on: control cell lines (HACAT, HEK293T, CRL-7250, NIH-3T3); experiment: qHTS cell viability, control cell lines as a group (mean AUC, Control.avg); assay type: cell-based; conditions: mean AUC of control cell lines
[13] = tested on: MKL-2 cells (VP-MCC); experiment: qHTS cell viability (CellTiter-Glo, 72 h; primary and follow-up small molecule screen); assay type: cell-based, human
[14] = tested on: MKL-1 cells (VP-MCC); experiment: as above; assay type: cell-based, human
[15] = tested on: VP-MCC cell lines (WAGA, MKL-1, MKL-2); experiment: qHTS cell viability, VP-MCC cell lines as a group (mean AUC, VP.MCC.avg); assay type: cell-based, human; conditions: for VP-MCC_Avg_AUC: mean AUC of VP-MCC cell lines
[16] = NPC library, therapeutic window: Control avg AUC minus VN-MCC avg AUC
[17] = NPC library, qHTS dose-response AUC, WAGA
[18] = NPC library, qHTS dose-response AUC, MCC13
[19] = NPC library, therapeutic window: Control avg AUC minus MCC avg AUC
[20] = NPC library; qHTS dose-response AUC, MCC26
[21] = NPC library, qHTS dose-response AUC, CRL7250 control
[22] = NPC library, qHTS dose-response AUC, UISO
[23] = NPC library, qHTS dose-response AUC, NIH3T3 control
[24] = NPC library, mean AUC of six MCC cell lines
[25] = NPC library, qHTS dose-response AUC, HACAT control
[26] = NPC library, qHTS dose-response AUC, MKL2
[27] = NPC library, qHTS dose-response AUC, MKL1
[28] = NPC library, therapeutic window: Control avg AUC minus VP-MCC avg AUC
[29] = MIPE library, 11-point DRC, control cell line, sheet S2E
[30] = MIPE library, 11-point DRC, sheet S2E

## Oc1ccc(O)cc1 [Hydroquinone]
[1]; NPC library; qHTS dose-response AUC, HEK293T control
  HEK293T_AUC: 480.593
[1]; area under the dose-response curve, HEK293T control cells; AUC<450 = reduced viability
  HEK293T_AUC: 480.593
[2]; NPC library
  VN-MCC_Avg_AUC: 488.855
[2]; [16]
  Control-VN-MCC: -1.637
[3]; [17]
  WAGA_AUC: 370.144
[3]; area under the dose-response curve, WAGA cells, AUC<450 = reduced viability
  WAGA_AUC: 370.144
[4]; [18]
  MCC13_AUC: 503.441
[4]; area under the dose-response curve, MCC13 cells, AUC<450 = reduced viability
  MCC13_AUC: 503.441
[5]; [19]
  Control-MCC: 45.1616
[6]; [20]
  MCC26_AUC: 512.585
[6]; area under the dose-response curve, MCC26 cells; AUC<450 = reduced viability
  MCC26_AUC: 512.585
[7]; [21]
  CRL7250_AUC: 487.877
[7]; area under the dose-response curve, CRL7250 control cells, AUC<450 = reduced viability
  CRL7250_AUC: 487.877
[8]; [22]
  UISO_AUC: 450.538
[8]; area under the dose-response curve, UISO cells, AUC<450 = reduced viability
  UISO_AUC: 450.538
[9]; [23]
  NIH3T3_AUC: 488.45
[9]; area under the dose-response curve, NIH3T3 control cells, AUC<450 = reduced viability
  NIH3T3_AUC: 488.45
[10]; [24]
  MCC_Avg_AUC: 442.057
[11]; [25]
  HACAT_AUC: 491.952
[11]; area under the dose-response curve, HACAT control cells, AUC<450 = reduced viability
  HACAT_AUC: 491.952
[12]; NPC library
  Control_Avg_AUC: 487.218
[13]; [26]
  MKL2_AUC: 400.457
[13]; area under the dose-response curve, MKL-2 cells, AUC<450 = reduced viability
  MKL2_AUC: 400.457
[14]; [27]
  MKL1_AUC: 415.173
[14]; area under the dose-response curve, MKL-1 cells, AUC<450 = reduced viability
  MKL1_AUC: 415.173
[15]; NPC library
  VP-MCC_Avg_AUC: 395.258
[15]; [28]
  Control-VP-MCC: 91.96

## CCCCCC(=O)O[C@]1(C(C)=O)CC[C@H]2[C@@H]3CCC4=CC(=O)CC[C@]4(C)[C@H]3CC[C@@]21C [Hydroxyprogesterone caproate]
[1]; NPC library, qHTS dose-response AUC, HEK293T control
  HEK293T_AUC: 404.302
[2]; Control AUC minus VN-MCC AUC
  Control-VN-MCC: 24.569
[2]; NPC library
  VN-MCC_Avg_AUC: 431.458
[2]; [16]
  Control-VN-MCC: 24.569
[3]; [17]
  WAGA_AUC: 360.251
[4]; [18]
  MCC13_AUC: 442.155
[5]; [19]
  Control-MCC: 74.9886
[6]; NPC library, qHTS dose-response AUC, MCC26
  MCC26_AUC: 432.584
[6]; [20]
  MCC26_AUC: 432.583
[7]; [21]
  CRL7250_AUC: 467.486
[8]; [22]
  UISO_AUC: 419.635
[9]; [23]
  NIH3T3_AUC: 480.983
[10]; NPC library, mean AUC of all 6 MCC cell lines
  MCC_Avg_AUC: 381.038
[10]; [24]
  MCC_Avg_AUC: 381.038
[11]; [25]
  HACAT_AUC: 471.336
[12]; NPC library
  Control_Avg_AUC: 456.027
[13]; [26]
  MKL2_AUC: 288.23
[14]; [27]
  MKL1_AUC: 343.375
[15]; Control AUC minus VP-MCC AUC
  Control-VP-MCC: 125.408
[15]; NPC library
  VP-MCC_Avg_AUC: 330.619
[15]; [28]
  Control-VP-MCC: 125.408

## CC(C)(C)OC(=O)Nc1ccc(-c2cc(C(=O)NCCCCCCC(=O)NO)no2)cc1 [ISOX]
[1]; [29]
  HEK293T_AUC: 382.485
[2]; MIPE library, Control AUC minus VN-MCC AUC (therapeutic window), sheet S2E
  Control-VN-MCC: -20.9846
[2]; MIPE library, sheet S2E
  VN-MCC_Avg_AUC: 426.683
[3]; [30]
  WAGA_AUC: 354.914
[4]; [30]
  MCC13_AUC: 413.98
[5]; MIPE library, Control AUC minus MCC AUC (therapeutic window), sheet S2E
  Control-MCC: 15.5032
[6]; [30]
  MCC26_AUC: 447.653
[7]; [29]
  CRL7250_AUC: 411.627
[8]; [30]
  UISO_AUC: 418.415
[9]; [29]
  NIH3T3_AUC: 388.752
[10]; MIPE library, mean AUC of six MCC cell lines, sheet S2E
  MCC_Avg_AUC: 390.195
[11]; [29]
  HACAT_AUC: 439.928
[12]; MIPE library, sheet S2E
  Control_Avg_AUC: 405.698
[13]; [30]
  MKL2_AUC: 356.229
[14]; [30]
  MKL1_AUC: 349.979
[15]; MIPE library, Control AUC minus VP-MCC AUC (therapeutic window), sheet S2E
  Control-VP-MCC: 51.9911
[15]; MIPE library, sheet S2E
  VP-MCC_Avg_AUC: 353.707
